Results taken from EP3789378A1, “PIPERIDINES OR PIPERIDONES SUBSTITUTED WITH UREA AND HETEROARYL” (Grünenthal GmbH, priority 2019, dated 2021).

The compounds below were run against T1, h FPR2 (Homo sapiens, UniProt P25090) (assay: Agonistic activity in hFPR2-Aq-CHO cells (FLIPR Calcium 5 fluorescence assay)). Details: 11 point half log dilution, final assay concentration from 10µM.
T1 construct: expressed in transfected cells
T1 sequence (P25090 1-351): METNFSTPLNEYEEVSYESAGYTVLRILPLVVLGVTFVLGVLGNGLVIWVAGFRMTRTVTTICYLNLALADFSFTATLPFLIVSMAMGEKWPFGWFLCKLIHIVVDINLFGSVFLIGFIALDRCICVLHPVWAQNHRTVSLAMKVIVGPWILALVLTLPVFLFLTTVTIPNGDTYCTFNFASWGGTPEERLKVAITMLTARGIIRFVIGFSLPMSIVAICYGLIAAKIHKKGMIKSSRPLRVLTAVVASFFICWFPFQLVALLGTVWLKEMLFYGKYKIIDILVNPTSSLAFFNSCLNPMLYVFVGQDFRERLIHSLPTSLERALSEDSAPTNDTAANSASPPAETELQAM
Assay type: cell-based
Procedure: After washing, the cells are plated at 10,000 cells per well in 40 µL complete medium in a 384-well sterile clear bottom black plate and incubated in a 5% CO2 incubator at 37°C for 18 hours. Plating media is removed from each well by decanting and gentle tapping before 30 µL of 0.5X Calcium 5 dye solution (0.5X FLIPR Calcium 5 dye (Molecular devices, R8186)); HBSS; 20mM HEPES; 2.5mM Probenecid; 0.025% Pluronic F-127; pH adjusted to 7.4) is added to each well and the plate is then incubated at 37°C for 30 minutes. For the assay the plate is equilibrated at room temperature for 10 minutes before placing it in the FLIPR. Compounds are dissolved in DMSO and serially diluted over an 11 point half log (3.16 fold) dilution (2 mM to 20 nM). Compounds are then diluted 1:50 in assay buffer (HBSS; 20mM HEPES; 2.5mM Probenecid; 0.05% gelatin; 0.1% BSA; pH adjusted to 7.4) just before performing the assay. Compounds are finally added to the respective wells of the cell plate (final assay concentration 10 µM to 100 pM) using the FLIPR (e.g. FLIPR-Tetra, Molecular Devices) and fluorescence readings are captured for 5 minutes. The increase in fluorescence from the basal reading in the presence of the compounds is compared with that of the control wells (wells having no compound) to calculate the activity of the compounds. The EC50 values of the compounds can be determined using e.g. Graph pad Prism software.
Assay method for measuring agonistic activity of compounds in hFPR2-Aq-CHO cell
Cryo-vial containing 6x10^6 cells (hFPR1-Gα15-CHO or hFPR2-Aq-CHO) was thawed in a 37°C water bath. Cells were suspended in 10ml of respective complete growth media (F12(1X)HAM media (Gibco; Cat#11765); 10% HI-FBS (Gibco; Cat#10082); 0.4 mg/ml Geneticin (Gibco; Cat#10131); 0.25 mg/ml Zeocin (Invitrogen; Cat#R25001)) in a 15ml centrifuge tube. The cell viability was checked with the help of Trypan Blue dye. Upon washing the cells, those were plated in a 384-well sterile clear bottom black plate (Greiner Bioone Cat# 781091) so that, each well contained 10,000 cells in 40µl complete growth media. The plate was incubated in a 5% CO2 incubator at 37°C for 18 hours. Before assay on the next day, the cell plating media was removed from each well of the plate by decanting and gentle tapping. 30µl of 0.5X Calcium 5 dye solution (0.5X FLIPR Calcium 5 dye (Molecular devices Cat# R8186); HBSS (Invitrogen; Cat#14025); 20mM HEPES (Sigma; Cat#H0887); 2.5mM Probenecid (Sigma; Cat#P8761); 0.025% Pluronic F-127 (Sigma; Cat#P2443); pH adjusted to 7.4) was added to each well. The plate was then incubated at 37°C for 30 minutes. Following which the plate was equilibrated at room temperature for 10 minutes before placing it in a 384 well FLIPR for assay. Compounds were dissolved in DMSO and serially diluted following 11 point half log (3.16 fold) dilution with a starting concentration of 2mM (Final assay concentration 10µM). Aliquots of above mentioned each dilution was mixed with assay buffer (HBSS (Invitrogen; Cat#14025); 20mM HEPES (Sigma; Cat#H0887); 2.5mM Probenecid (Sigma; Cat#P8761); 0.05% gelatin (Sigma; Cat#G1890); 0.1% BSA (Sigma; Cat#A3059); pH adjusted to 7.4) just before performing the assay. Compounds were added to the respective wells of the assay ready cell plate with the help of the FLIPR (FLIPR Tetra) and fluorescence readings were captured for 5 minutes to measure any agonistic response of the compounds. The increase in fluorescence readings from the basal reading in presence of the compounds were compared with that of the control wells (wells having no compound) to calculate the agonistic activity of the compounds. The EC50 values of the compounds were determined using the Graph pad Prism software.

| EC50 [nM] | Compound |
| --- | --- |
| 0.08 | COc1ccc([C@@H]2CN(Cc3ccc(C)nc3)CC[C@H]2NC(=O)Nc2ccc(Cl)cc2)nc1 (relative stereo) [Ex-67, trans-1-(4-chlorophenyl)-3-[-3-(5-methoxypyridin-2-yl)-1-[(6-methylpyridin-3-yl)methyl]piperidin-4-yl]urea] |
| 1 | COc1ccc([C@@H]2CN(c3ccc(F)cc3)CC[C@H]2NC(=O)Nc2cc(C)ns2)nc1 (relative stereo) [Ex-20, trans-1-[1'-(4-fluoro-phenyl)-5-methoxy-1',2',3',4',5',6'-hexahydro-[2,3']bipyridinyl-4'-yl]-3-(3-methyl-isothiazol-5-yl)-urea] |
| 0.3 | COc1ccc([C@@H]2CN(CC(N)=O)CC[C@H]2NC(=O)Nc2ccc(Cl)cc2)nc1 (relative stereo) [Ex-129, trans-2-[4-[[(4-Chlorophenyl)-carbamoyl]amino]-3-(5-methoxy-pyridin-2-yl)-piperidin-1-yl]-acetamide] |
| 4 | COc1ccc([C@@H]2CN(CC3COC3)CC[C@H]2NC(=O)Nc2cc(C)ns2)nc1 (relative stereo) [Ex-204, trans-1-(5-methoxy-1'-oxetan-3-ylmethyl-1',2',3',4',5',6'-hexahydro-[2,3']bipyridinyl-4'-yl)-3-(3-methyl-isothiazol-5-yl)-urea] |
| 28 | COc1ccc([C@@H]2CN(CC3COC3)CC[C@H]2NC(=O)Nc2ccccc2)nc1 (relative stereo) [Ex-161, trans-1-[3-(5-Methoxy-pyridin-2-yl)-1-(oxetan-3-yl-methyl)-piperidin-4-yl]-3-phenyl-urea] |
| 2 | COc1ccc([C@@H]2CN(CC3(O)CC3)CC[C@H]2NC(=O)Nc2cc(C)ns2)nc1 (relative stereo) [Ex-182, trans-1-[1'-(1-hydroxy-cyclopropylmethyl)-5-methoxy-1',2',3',4',5',6'-hexahydro-[2,3']bipyridinyl-4'-yl]-3-(3-methyl-isothiazol-5-yl)-urea] |
| 0.7 | COc1ccc([C@@H]2CN(CC(C)(C)O)CC[C@H]2NC(=O)Nc2ccc(Cl)cc2)nc1 (relative stereo) [Ex-120, trans-1-(4-Chlorophenyl)-3-[1-(2-hydroxy-2-methyl-propyl)-3-(5-methoxy-pyridin-2-yl)-piperidin-4-yl]-urea] |

Second part, the compound before the results:

| Compound | EC50 [nM] |
| --- | --- |
| COc1ccc([C@@H]2CN(Cc3ccc(C(F)(F)F)nc3)CC[C@H]2NC(=O)Nc2ccc(Cl)cc2)nc1 (relative stereo) [Ex-60, trans-1-(4-chlorophenyl)-3-(3-(5-methoxypyridin-2-yl)-1-((6-(trifluoromethyl)pyridin-3-yl)methyl)piperidin-4-yl)urea] | 0.04 |
| O=C(Nc1ccc(Cl)cc1)N[C@@H]1CCN(Cc2ccc(C(F)(F)F)nc2)C[C@H]1c1ccc(Cl)s1 (relative stereo) [Ex-74, trans-1-(4-chlorophenyl)-3-[3-(5-chlorothiophen-2-yl)-1-{[6-(trifluoromethyl)pyridin-3-yl]methyl}piperidin-4-yl]urea] | 2 |
| COc1cnc([C@@H]2CN(CC3CC3)CC[C@H]2NC(=O)Nc2ccc(Cl)cc2)c(F)c1 (relative stereo) [Ex-209, trans-1-(4-chloro-phenyl)-3-(1'-cyclopropylmethyl-3-fluoro-5-methoxy-1',2',3',4',5',6'-hexahydro-[2,3']bipyridinyl-4'-yl)-urea] | 0.3 |
| COc1ccc([C@@H]2CN(C(=O)CN(C)C)CC[C@H]2NC(=O)Nc2ccccc2)nc1 (relative stereo) [Ex-157, trans-1-[1-(2-Dimethylamino-acetyl)-3-(5-methoxy-pyridin-2-yl)-piperidin-4-yl]-3-phenyl-urea] | 81 |
| COc1ccc([C@@H]2CN(C(=O)CN(C)C)CC[C@H]2NC(=O)Nc2ccc(Cl)cc2)nc1 (single isomer, unassigned) [Ex-189, trans-1-(4-chlorophenyl)-3-[1-[2-(dimethylamino)acetyl]-3-(5-methoxypyridin-2-yl)piperidin-4-yl]urea] | 1.7 |
| CS(=O)(=O)n1ccc(CN2CC[C@@H](NC(=O)Nc3ccccc3)[C@H](c3ccc(Cl)s3)C2)n1 (single isomer, unassigned) [Ex-57, trans-1-(-3-(5-chlorothiophen-2-yl)-1-((1-(methylsulfonyl)-1H-pyrazol-3-yl)methyl)piperidin-4-yl)-3-phenylurea] | 55 |
| COc1ccc([C@@H]2CN(C3CCS(=O)(=O)CC3)CC[C@H]2NC(=O)Nc2ccc(Cl)cc2)nc1 (relative stereo) [Ex-110, trans-1-(4-chlorophenyl)-3-(1-(1,1-dioxidotetrahydro-2H-thiopyran-4-yl)-3-(5-methoxypyridin-2-yl)piperidin-4-yl)urea] | 49 |
| COc1ccc([C@@H]2CN(CC3CCNCC3)CC[C@H]2NC(=O)Nc2ccc(Cl)cc2)nc1 (single isomer, unassigned) [Ex-124, trans-1-(4-chlorophenyl)-3-(3-(5-methoxypyridin-2-yl)-1-(piperidin-4-ylmethyl)piperidin-4-yl)urea] | 0.03 |
| CS(=O)(=O)n1ccc(CN2CC[C@@H](NC(=O)Nc3ccccc3)[C@H](c3ccc(Cl)cn3)C2)n1 (relative stereo) [Ex-184, trans-1-[5-chloro-1'-(1-methanesulfonyl-1H-pyrazol-3-ylmethyl)-1',2',3',4',5',6'-hexahydro-[2,3']bipyridinyl-4'-yl]-3-phenyl-urea] | 1.4 |
| COc1cnc([C@@H]2CN(CC3CCC(OC)CC3)CC[C@H]2NC(=O)Nc2ccc(Cl)cc2)c(F)c1 (relative stereo) [Ex-223, trans-1-(4-Chloro-phenyl)-3-[3-fluoro-5-methoxy-1'-(4-methoxy-cyclohexylmethyl)-1',2',3',4',5',6'-hexahydro-[2,3']bipyridinyl-4'-yl]-urea] | 0.8 |

Same assay, conditions: agonistic response at 0.1µM

| activation at 0.1 µM [%] | Compound |
| --- | --- |
| 26 | COc1ccc([C@@H]2CN(C(=O)c3cnccc3C(F)(F)F)CC[C@H]2NC(=O)Nc2ccc(Cl)cc2)nc1 (relative stereo) [Ex-98, trans-1-(4-chlorophenyl)-3-[3-(5-methoxypyridin-2-yl)-1-{[4-(trifluoromethyl)pyridin-3-yl]carbonyl}piperidin-4-yl]urea] |
| 19 | O=C(Nc1ccccc1)N[C@@H]1CCN(C2CNC2)C[C@H]1c1ccc(Cl)cn1 (relative stereo) [Ex-185, trans-1-(1'-azetidin-3-yl-5-chloro-1',2',3',4',5',6'-hexahydro-[2,3']bipyridinyl-4'-yl)-3-phenyl-urea] |
| 23 | COc1ccc([C@@H]2CNCC[C@H]2NC(=O)Nc2ccc(Cl)cc2)nc1 (relative stereo) [Ex-169, trans-1-(4-Chlorophenyl)-3-[3-(5-methoxy-pyridin-2-yl)-piperidin-4-yl]-urea] |
| 25 | COc1ccc([C@@H]2CN(C3CCS(=O)(=O)CC3)CC[C@H]2NC(=O)Nc2cc(C)ns2)nc1 (relative stereo) [Ex-149, trans-1-[1-(1,1-Dioxo-thian-4-yl)-3-(5-methoxy-pyridin-2-yl)-piperidin-4-yl]-3-(3-methyl-isothiazol-5-yl)-urea] |
